Experimental data as given in ChEMBL document CHEMBL3046470, “Design, synthesis, anti-inflammatory, analgesic screening, and molecular docking of some novel 2-pyridyl (3H)-quinazolin-4-one derivatives” (2013).
Calls of active or inactive are those of the source. The rule behind the calls is not given here.

Key:
Rattus norvegicus [1] = experiment: Anti-inflammatory activity against Rattus norvegicus Albino Sprague-Dawley (rat) assessed as inhibition of carrageenan-induced paw edema at 50 mg/kg, ip administered 30 min prior to carrageenan injection measured after 4 hr by plethysmometer analysis; assay type: functional, organism-based; parameters: dose 50 mg/kg
Rattus norvegicus [2] = experiment: Anti-inflammatory activity against Rattus norvegicus albino Sprague-Dawley (rat) assessed as inhibition of carrageenan-induced paw edema at 50 mg/kg, ip administered 30 min prior to carrageenan injection measured after 3 hr by plethysmometer analysis; assay type: functional, organism-based; parameters: dose 50 mg/kg
Rattus norvegicus [3] = experiment: Anti-inflammatory activity against Rattus norvegicus Albino Sprague-Dawley (rat) assessed as inhibition of carrageenan-induced paw edema at 50 mg/kg, ip administered 30 min prior to carrageenan injection measured after 2 hr by plethysmometer analysis; assay type: functional; conditions: for inhibition in vivo at 50 mg/kg: route intraperitoneal
Rattus norvegicus [4] = experiment: Anti-inflammatory activity against Rattus norvegicus Albino Sprague-Dawley (rat) assessed as inhibition of carrageenan-induced paw edema at 50 mg/kg, ip administered 30 min prior to carrageenan injection measured after 1 hr by plethysmometer analysis; assay type: functional; conditions: for inhibition in vivo at 50 mg/kg: route intraperitoneal
Rattus norvegicus [5] = experiment: Anti-inflammatory activity against Rattus norvegicus Albino Sprague-Dawley (rat) assessed as inhibition of carrageenan-induced paw edema at 18 mg/kg, ip administered 30 min prior to carrageenan injection measured after 1 hr by plethysmometer analysis; assay type: functional; conditions: route intraperitoneal
Mus musculus [6] = experiment: Analgesic activity in Mus musculus Swiss (mouse) assessed as inhibition of acetic acid-induced writhing at 50 mg/kg, sc administered 1 hr prior to acetic acid injection measured after 5 min for 30 min; assay type: functional; conditions: route subcutaneous
Rattus norvegicus [7] = experiment: Anti-inflammatory activity against Rattus norvegicus Albino Sprague-Dawley (rat) assessed as inhibition of carrageenan-induced paw edema administered 30 min prior to carrageenan injection measured after 4 hr by plethysmometer analysis; assay type: functional
Mus musculus [8] = experiment: Analgesic activity in Mus musculus Swiss (mouse) assessed as inhibition of acetic acid-induced writhing administered 1 hr prior to acetic acid injection measured after 5 min for 30 min; assay type: functional; conditions: read-out: PD50

Row | Compound | inhibition (Rattus norvegicus [1]) | inhibition (Rattus norvegicus [2]) | inhibition (Rattus norvegicus [3]) | inhibition in vivo at 50 mg/kg (Rattus norvegicus [4]) [%] | inhibition in vivo at 18 mg/kg (Rattus norvegicus [5]) [%] | inhibition in vivo at 50 mg/kg (Mus musculus [6]) [%] | inhibition in vivo at 50 mg/kg (Rattus norvegicus [3]) [%] | inhibition (Rattus norvegicus [4]) | ED50 (Rattus norvegicus [7]) [mg/kg] | ED50 (Mus musculus [8]) [mg/kg]
1 | COc1ccc(C2CC(c3ccc(-n4c(-c5ccncc5)nc5ccc(Br)cc5c4=O)cc3)=NN2C(C)=O)cc1 (centres undefined) | Active | Active | Active | 64.5 | – | – | – | – | – | –
2 | COc1ccc2c(c1)c(CC(=O)O)c(C)n2C(=O)c1ccc(Cl)cc1 [INDOMETHACIN] | – | – | – | – | 62.9 | – | – | – | – | –
3 | O=C1N=C(c2ccc(-n3c(-c4ccncc4)nc4ccc(Br)cc4c3=O)cc2)CC(c2ccc(Cl)cc2)N1 (centres undefined) | Active | Active | Active | 62.3 | – | 75.4 | – | – | – | –
4 | O=C(/C=C/c1ccc(Cl)cc1)c1ccc(-n2c(-c3ccncc3)nc3ccc(Br)cc3c2=O)cc1 | Active | Active | Active | 73.8 | – | – | – | – | – | –
5 | O=C(/C=C/c1ccc([N+](=O)[O-])cc1)c1ccc(-n2c(-c3ccncc3)nc3ccc(Br)cc3c2=O)cc1 | Active | Active | – | – | – | – | 70.5 | Active | 22.3 | –
6 | Nc1nc(-c2ccc(-n3c(-c4ccncc4)nc4ccc(Br)cc4c3=O)cc2)cs1 | Active | Active | – | – | – | – | 62.8 | Active | – | –
7 | O=c1c2cc(Br)ccc2nc(-c2ccncc2)n1-c1ccc(-c2csc(O)n2)cc1 | Active | Active | – | – | – | 75.7 | 67.3 | Active | – | 15
